A word on the EC50: it is the concentration at which the effect is half-maximal. Broadly, the IC50 is the concentration that inhibits the measured activity by half.

Among the data in patent US5334595A, “Pyrazoloquinolones as anticancer agents” (priority 1992, dated 1994) are EC50, IC50 and MTD values, retold here.

In one data set the target is T1, human topoisomerase II (Homo sapiens, UniProt P11388).
T1 construct: Topo II was purified from late log phase suspension cultures of HeLa WIS; endogenous in cells; host or cells: HeLa WIS
Kind of data set: Mammalian topoisomerase II inhibition assay (topo II covalently attached to DNA, relative to mAMSA). The settings on record: conc. achieving 50% of maximal effect of mAMSA; topo II from HeLa cells; read-out: topo II inh. EC50. The data set is classed as biochemical. The text has this: The inhibition of human topoisomerase II (hereafter topo II) was quantitated by a procedure adapted from that described by Trask et al., EMBO J., 3, 671-676 (1984). The assay quantitates the amount of topo II covalently attached to DNA at equilibrium during a topo II reaction. This assay determines the potential of a compound to stabilize this complex, which potential is closely related to the cytotoxicity of the compound.
Topo II was purified from late log phase suspension cultures of HeLa WIS by an adaptation of the method described by Per et al., Mol. Pharmacol., 32, 17-25 (1987).
Assays (in duplicate) were assembled at 4° C. Assay mix (25 μl) was distributed in Beckman (No. 265270) 1.5 mL microtiter tubes followed by the addition of 5 μl test compound to yield the final concentrations of assay components:
The assay mix including the test compound was incubated for 20 minutes at 37° C. The reaction was terminated at 37° C. by the addition of 3 μl 10% SDS followed by the addition of 266 μl 10 mM Tris-Cl pH 7.5, 20 μg/ml BSA, 20 μg/ml calf thymus DNA, 1% SDS.
A SDS/protein precipitate was formed by the addition of 28 μl 2.5M KCl followed by chilling on ice for a minimum of 10 minutes. The precipitate was collected and washed with a Brandell cell harvester on a GFB glass fiber filter membrane as follows. The contents of the assay tube were drawn up into the harvester. The tube was then rinsed 7× with 10 mM Tris-Cl pH 7.5, 1 mM EDTA and 100 mM KCl. The precipitate was washed with 1 L of a solution of 10 mM Tris-Cl pH 7.5, 1 mMEDTA, 100 mM KCl followed by 1 L of 95% ethyl alcohol and finally 0.5 L 70% of ethyl alcohol (per 48 samples in each case). After drying, CPM was determined by liquid scintillation counting with 5 ml Biofluor (NEN Research Products) or Readisafe (Beckman Instruments Inc.) cocktail.
Preparation of test compound--A stock solution (6 mg/ml) of test compound was prepared either in 0.1N sodium hydroxide or 0.2N hydrogen chloride. This solution then was diluted 1/5 into water and serially thereafter in either 0.02N sodium hydroxide or 0.04N hydrogen chloride, respectively. The stock solution and serial dilution of the test compound was stored at -20° C. prior to testing.
Screening of test compound--As an initial screen, the test compound was tested at a final concentration of 2, 20 and 200 μg/ml. The compound was then retested at a range of concentrations (usually 2-3×steps) bridging their approximate EC50 's, as estimated by the prescreen.
Controls--A solvent control which indicates the base level of topo II-DNA complex formed in the absence of the test compound was included in each test. A control, in which topo II was omitted, was included for each test compound at the highest drug concentration tested.
Reference Agent--A dose response curve with mAMSA at 0.01, 0.08, 0.16, 0.32, 1.0 and 10 μg/ml was included in each test.
The maximal DNA-topo II complex formed is taken as that equal to that formed at the nearly saturating dose of mAMSA (10 μg/ml).

For data set [1], the system named is P388 murine leukemia cells. Put plainly: In vitro cytotoxicity, one-hour exposure, clonogenic survival of P388 cells. The data set is classed as cell-based. The settings on record: Mus musculus, read-out: in vitro cytotoxicity IC50, 1 hr exp.; P388, 1 hr exposure. As for the experimental part: (§1) In vitro cytotoxicity was assayed by determining cell survival following exposure of P388 murine leukemia cells to a range of test compound concentrations. Cytotoxicity was quantitated following either a one-hour exposure or continuous exposure of P388 cells to test compound.
(§2) A Manual of Basic Technique. […] Briefly, following drug exposure cells were plated in soft agar and incubated (37°, 5% CO2) for 7-10 days during which time viable cells form visible colonies. Cytotoxicity following continuous exposure of cells to test compound was assayed by quantitating total P388 cells on a Coultier Counter following a 48-hour co-incubation of test compound with cells. P388 cells were maintained in log phase throughout the duration of cytotoxicity assays.
(§3) The percentage of cells surviving relative to an untreated control was graphed as a function of increasing drug concentration.

The test system of data set [2] is P388 murine leukemia cells. Kind of data set: In vitro cytotoxicity, continuous (48-hour) exposure of P388 cells. As to conditions: Mus musculus; P388, continuous exposure (48-hour); read-out: in vitro cytotoxicity IC50, cont. exp. The format is cell-based. How it is done: as §1, §2, §3
Data set [3] can be described thus: In vivo antitumor assay, Panc03(sc). Also on record: species or system mice. The settings on record: mouse, in vivo, MTD. The source says:
Mice: Inbred: C3H/He and NCR-nu; and Hybrids: B6D2F1 (C57BL/6 females×DBA/2 males, CD2F1 (Balb/c females×DBS/2 males) and B6C3fl (C57BL/6×C3H) were bred at Wayne State University from strains obtained from the Frederick Cancer Research Facility, Frederick, Maryland or purchased from commercial suppliers.
Tumors: Murine Tumor: P388 and an adriamycin-resistant (ADR) subline P388/ADR leukemia and the following transplantable solid tumors of mice were used for in vivo testing: B16 melanoma (B16), pancreatic ductal adenocarcinoma No. 03 (Pane 03), colon adenocarcinoma No. 38 (colo 38), lung carcinoma No. 12 (LC 12), mammary ductal adenocarcinoma No. 16/C (Mam16C) and an adriamycin-resistant subline Mam16C/ADR. Human tumor: A single human tumor, mammary carcinoma MX-1 was used for in vivo testing. All tumors are in the Developmental Therapeutics Program frozen tumor respository, maintained by the Biological Testing Branch, Frederick Maryland. Each has a detailed description, code identification number, and list of references at the National Tumor Repository. Murine tumors were maintained in the mouse strain of origin and were transplanted in the appropriate F1 hydrid (or the strain of origin) for therapy trials. Human mammary carcinoma MX-1 (MX1) was maintained as a subcutaneous implant in either athymic Swiss (Cr: NIH(S)-nu) or athymic random bred (NCR-nu) mice and transplanted in NCR-nu for therapy trials.
Chemotherapy: For pancreatic ductal adenocarcinoma No. 3, colon adenocarcinoma No. 38 (colo 38), lung carcinoma No. 12 LC 12) and both adriamycin-sensitive (RP) and-resistant (ADR) mammary ductal adenocarcinoma No. 16 (Mam16) tumors, bilateral tumor implants were used to help ensure a more uniform tumor burden per mouse (thus reducing the requirement for greater numbers of mice per group). The animals necessary to begin an experiment were pooled, implanted bilaterally s.c. on day zero with 30-60 mg tumor fragments using a 12-gauge trocar, and again pooled before randomization to the various treatment and control groups. Chemotherapy was started within three days after tumor implantation while the number of cells per mouse was relatively small (1×10^7 -1×10^8 cells).
Quantitative end points used to assess antitumor activity included % Increased Life Span (% ILS), Tumor Cell Kill (Log10 kill), and Tumor Growth Inhibition (T/C). Long Term Survivors (45 or 60 day) were excluded from calculations of %ILS and Tumor Cell Kill.
The log10 cell kill was calculated from the following formula: [formula] where T-C is the tumor difference in the median day of death between the treated (T) and the control (C) groups and Td is the tumor doubling time (in days), the latter estimated from the best fit straight line from a log-linear growth plot of the control-group tumors in exponential growth. The conversion of the T-C values to log10 cell kill is possible because the Td for tumors regrowing post-treatment approximated the Td values of the tumors in untreated control mice.
Tumors were measured with a caliper once or twice weekly (as needed) until either tumors exceeded 1600 mg or cure was assured. Tumor weights were estimated from two-dimensional measurements: Tumor Weight (mg)=(a×b^2) / 2, where a and b are the tumor length and width (ram) respectively. Measurements were carried out simultaneously in both treatment and control groups. When the control group tumors reached approximately 750-1500 mg in size (median of group), the median tumor weight of each group was determined (including zeros). The T/C value in percent is an indication of antitumor effectiveness. The % T/C was calculated from the following formula for solid murine tumor models: [formula] where T and C are median tumor weights of the treatment and control groups, respectively. A T/C equal to or less than 42% is considered significant antitumor activity. […]

T1 sequence (P11388 whole entry): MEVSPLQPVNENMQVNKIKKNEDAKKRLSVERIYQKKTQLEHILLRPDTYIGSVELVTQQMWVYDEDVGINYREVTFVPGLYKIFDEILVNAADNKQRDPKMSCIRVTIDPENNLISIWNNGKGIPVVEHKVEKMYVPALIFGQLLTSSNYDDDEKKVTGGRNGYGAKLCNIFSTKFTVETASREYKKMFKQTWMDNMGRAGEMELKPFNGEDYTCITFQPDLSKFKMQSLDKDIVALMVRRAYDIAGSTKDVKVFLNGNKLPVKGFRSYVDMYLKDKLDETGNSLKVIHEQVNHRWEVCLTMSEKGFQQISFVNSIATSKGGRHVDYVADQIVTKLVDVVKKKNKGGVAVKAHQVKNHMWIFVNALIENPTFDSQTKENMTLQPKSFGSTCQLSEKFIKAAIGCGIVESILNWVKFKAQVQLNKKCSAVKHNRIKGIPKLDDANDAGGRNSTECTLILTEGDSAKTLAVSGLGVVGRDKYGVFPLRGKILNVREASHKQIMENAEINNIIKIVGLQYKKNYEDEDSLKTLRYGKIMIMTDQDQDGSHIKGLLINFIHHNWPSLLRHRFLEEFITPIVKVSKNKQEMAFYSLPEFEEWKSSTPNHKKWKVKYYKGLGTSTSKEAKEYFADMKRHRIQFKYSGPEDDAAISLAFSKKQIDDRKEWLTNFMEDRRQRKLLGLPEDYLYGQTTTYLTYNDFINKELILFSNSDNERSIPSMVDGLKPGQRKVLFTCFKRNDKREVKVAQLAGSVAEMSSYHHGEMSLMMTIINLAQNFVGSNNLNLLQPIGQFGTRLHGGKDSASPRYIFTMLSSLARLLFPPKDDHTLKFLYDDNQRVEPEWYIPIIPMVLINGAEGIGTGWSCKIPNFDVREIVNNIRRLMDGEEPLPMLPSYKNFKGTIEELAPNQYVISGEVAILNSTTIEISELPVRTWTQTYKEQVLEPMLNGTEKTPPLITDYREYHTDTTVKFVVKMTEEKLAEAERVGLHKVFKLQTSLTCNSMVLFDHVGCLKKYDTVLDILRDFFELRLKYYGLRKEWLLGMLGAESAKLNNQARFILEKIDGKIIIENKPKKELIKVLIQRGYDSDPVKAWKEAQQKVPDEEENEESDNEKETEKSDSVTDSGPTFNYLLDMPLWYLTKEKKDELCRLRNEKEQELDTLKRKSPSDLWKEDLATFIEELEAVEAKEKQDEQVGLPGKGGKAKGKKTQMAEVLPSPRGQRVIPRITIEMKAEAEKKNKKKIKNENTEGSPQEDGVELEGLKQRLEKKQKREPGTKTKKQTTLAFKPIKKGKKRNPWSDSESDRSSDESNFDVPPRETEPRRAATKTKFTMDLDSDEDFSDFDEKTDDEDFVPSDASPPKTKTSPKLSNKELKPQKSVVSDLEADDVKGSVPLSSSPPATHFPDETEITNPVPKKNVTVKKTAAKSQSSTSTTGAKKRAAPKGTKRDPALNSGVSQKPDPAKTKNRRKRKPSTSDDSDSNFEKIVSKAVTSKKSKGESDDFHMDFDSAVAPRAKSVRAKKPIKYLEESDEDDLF

In the case of `Cc1cc(-c2c(F)cc3c4n[nH]c(=O)c-4cn(C4CC4)c3c2F)cc(C)n1` [Example 6], at human topoisomerase II, the EC50 was found to be 11 µM. Moreover, the IC50 in data set [1] was determined as 7.9 µM; in data set [2], 3.6 µM. The same molecule yielded an MTD in data set [3] (sc) of more than 2500 mg/kg.

Regarding `Cc1cc(-c2c(F)cc3c4nn(CCC5CCCN5C)c(=O)c-4cn(C4CC4)c3c2F)cc(C)n1` (centres unmarked) [Example 21], the EC50 at human topoisomerase II came to 3.5 µM. Moreover, the IC50 was determined as 0.33 µM in data set [1] and 0.16 µM in data set [2]. Moreover, the MTD in data set [3] (iv) came out at 80 mg/kg.

Take `Cc1cc(-c2c(F)cc3c4nn([C@H]5CC[C@H](N)CC5)c(=O)c-4cn(C4CC4)c3c2F)cc(C)n1` [Example 56b, 2-(trans-4-aminocyclohexyl)-5-cyclopropyl-6,8-difluoro-2,5 dihydro-7-(2,6-dimethyl-4-pyridinyl)-3H-pyrazolo[4,3-c]quinolin-3-one]: the EC50 on human topoisomerase II was determined as 4.2 µM. The IC50 in data set [1] was 1.5 µM. Besides, in data set [3], the MTD turned out to be 550 mg/kg.
